ChEMBL document CHEMBL1151098, “Design of pyrrolo-1,4-benzoxazine derivatives as inhibitors of 5-lipoxygenase and PAF antagonists with anthihistaminic properties” (Bioorg Med Chem Lett, 1994)
Activity calls are given as the source filed them. The calls are words filed in the database; no cut-off is given here.

Legend:
Oryctolagus cuniculus [1] = organism: Oryctolagus cuniculus; test: Inhibitory activity of PAF-induced aggregation was determined on rabbit platelets; assay type: functional
[2] = In vivo inhibitory activity of histamine induced cutaneous reaction was determined at a conc. of 2.1E-5 mol/ Kg; assay type: functional
[3] = biological target: T1, Polyunsaturated fatty acid 5-lipoxygenase (Rattus norvegicus, UniProt P12527); test: Inhibitory activity against 5-lipoxygenase in rat neutrophils as inhibition of A 23,187-induced LTB4 production
T1 sequence (P12527 whole entry): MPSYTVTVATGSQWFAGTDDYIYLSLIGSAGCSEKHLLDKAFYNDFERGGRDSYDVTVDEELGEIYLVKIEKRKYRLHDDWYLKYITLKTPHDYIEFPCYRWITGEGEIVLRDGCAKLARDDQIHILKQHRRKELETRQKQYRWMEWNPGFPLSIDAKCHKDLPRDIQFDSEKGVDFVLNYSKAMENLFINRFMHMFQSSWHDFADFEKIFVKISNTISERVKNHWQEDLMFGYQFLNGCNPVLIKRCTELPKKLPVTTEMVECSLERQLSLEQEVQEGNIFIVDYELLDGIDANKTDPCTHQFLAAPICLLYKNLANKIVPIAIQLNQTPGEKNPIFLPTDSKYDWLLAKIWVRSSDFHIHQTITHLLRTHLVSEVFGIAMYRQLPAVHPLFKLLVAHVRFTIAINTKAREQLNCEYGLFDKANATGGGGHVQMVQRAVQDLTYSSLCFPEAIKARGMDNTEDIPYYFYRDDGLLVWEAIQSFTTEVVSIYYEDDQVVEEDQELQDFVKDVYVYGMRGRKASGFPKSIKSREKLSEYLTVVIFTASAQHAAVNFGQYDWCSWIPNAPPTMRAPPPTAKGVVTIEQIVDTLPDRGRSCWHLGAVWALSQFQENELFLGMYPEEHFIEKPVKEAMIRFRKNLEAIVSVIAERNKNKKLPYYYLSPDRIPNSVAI

[4] = In vivo inhibitory activity of histamine induced cutaneous reaction was determined at a conc. of 2.1E-5 mol/ Kg; Not active; assay type: functional, organism-based
Oryctolagus cuniculus [5] = organism: Oryctolagus cuniculus; test: Inhibitory activity of PAF-induced aggregation was determined on rabbit platelets; Not active at 10e-5 M; assay type: functional

Structure (SMILES) | IC50 (Oryctolagus cuniculus [1]) | IC50 [3] | IC50 (Oryctolagus cuniculus [5]) | Inhibition [2] | inhibition [4]
Cc1c(-c2ccc(O)cc2)n2c3c(cccc13)OC(CCN1CCN(c3ccccn3)CC1)C2 (stereo not drawn) | 8.1 µM | 2.2 µM |  | 47% | 
Cc1ccnc(N2CCN(CCC3Cn4c(-c5cc(C)c(O)c(C)c5)c(C)c5cc(O)cc(c54)O3)CC2)c1 (stereo not drawn) | 0.45 µM | 0.29 µM |  | 37% | 
Cc1cccc(N2CCN(CCC3Cn4c(-c5ccc(O)cc5)c(C)c5cccc(c54)O3)CC2)n1 (stereo not drawn) | 10.2 µM | 3.3 µM |  | 39% | 
COc1ccc2[nH]c(-c3cc(C)c(O)c(C)c3)c(C)c2c1 |  | 0.11 µM | Not Active |  | inactive
Cc1ccnc(N2CCN(CCC3Cn4c(-c5ccc(O)c(O)c5)c(C)c5cccc(c54)O3)CC2)c1 (stereo not drawn) | 4.7 µM | 1.9 µM |  |  | inactive
COc1cc(-c2c(C)c3cccc4c3n2CC(CCN2CCN(c3cc(C)ccn3)CC2)O4)ccc1O (stereo not drawn) | 5 µM | 3.2 µM |  | 2% | 

More lines, main results first:

IC50 (Oryctolagus cuniculus [1]) | IC50 [3] | IC50 (Oryctolagus cuniculus [5]) | Structure (SMILES) | Inhibition [2] | inhibition [4]
9.9 µM | 3.1 µM |  | Cc1ccc(N2CCN(CCC3Cn4c(-c5ccc(O)cc5)c(C)c5cccc(c54)O3)CC2)nc1 (stereo not drawn) | 58% | 
2.9 µM | 7.6 µM |  | COc1cc2c3c(c1)c(C)c(-c1cc(C)c(O)c(C)c1)n3CC(CCN1CCN(c3cc(C)ccn3)CC1)O2 (stereo not drawn) | 32% | 
2.7 µM | 3 µM |  | Cc1ccnc(N2CCN(CCC3Cn4c(-c5ccc(O)cc5)c(C)c5cccc(c54)O3)CC2)c1 (stereo not drawn) | 10% | 
1.6 µM | 1.5 µM |  | Cc1ccnc(N2CCN(CCC3Cn4c(-c5cc(C)c(O)c(C)c5)c(C)c5cccc(c54)O3)CC2)c1 (stereo not drawn) | 15% | 
7.2 µM | 2.3 µM |  | Cc1cccnc1N1CCN(CCC2Cn3c(-c4ccc(O)cc4)c(C)c4cccc(c43)O2)CC1 (stereo not drawn) | 57% | 
